In PMC4451461, “SimC7 Is a Novel NAD(P)H-Dependent Ketoreductase Essential for the Antibiotic Activity of the DNA Gyrase Inhibitor Simocyclinone” (Journal of Molecular Biology, 2015):

Experiments:
Type in all cases: biochemical
[1] = target: T1, DNA gyrase subunit A (GyrA) (Escherichia coli, UniProt P0AES4); assay: DNA gyrase supercoiling inhibition; SPR showed only weak, non-specific binding to GyrA; parameters: DNA gyrase; with GyrB
Target sequence in this assay (P0AES4 2-875): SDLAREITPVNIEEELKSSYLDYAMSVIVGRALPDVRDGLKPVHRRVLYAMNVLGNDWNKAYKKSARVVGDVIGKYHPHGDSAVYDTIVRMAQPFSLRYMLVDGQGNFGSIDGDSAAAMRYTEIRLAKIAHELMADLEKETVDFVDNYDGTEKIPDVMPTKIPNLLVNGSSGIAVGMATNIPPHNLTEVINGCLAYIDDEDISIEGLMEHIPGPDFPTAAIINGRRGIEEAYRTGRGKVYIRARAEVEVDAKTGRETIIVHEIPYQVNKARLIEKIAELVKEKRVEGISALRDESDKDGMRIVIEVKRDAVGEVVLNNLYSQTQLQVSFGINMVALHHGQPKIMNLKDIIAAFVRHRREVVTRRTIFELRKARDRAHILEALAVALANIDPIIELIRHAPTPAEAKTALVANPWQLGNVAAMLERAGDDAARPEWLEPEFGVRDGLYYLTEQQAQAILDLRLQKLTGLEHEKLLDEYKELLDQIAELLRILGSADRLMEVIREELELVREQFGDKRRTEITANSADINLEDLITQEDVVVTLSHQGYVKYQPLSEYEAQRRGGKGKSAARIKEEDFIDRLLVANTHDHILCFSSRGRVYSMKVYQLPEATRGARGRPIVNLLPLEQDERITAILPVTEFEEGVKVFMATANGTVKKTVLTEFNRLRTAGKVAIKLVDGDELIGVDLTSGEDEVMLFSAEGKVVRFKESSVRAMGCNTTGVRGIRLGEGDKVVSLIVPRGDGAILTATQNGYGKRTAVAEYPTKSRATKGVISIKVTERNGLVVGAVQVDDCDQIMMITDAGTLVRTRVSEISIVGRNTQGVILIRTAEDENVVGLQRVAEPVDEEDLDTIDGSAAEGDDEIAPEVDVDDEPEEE

[2] = target: T1, DNA gyrase subunit A (GyrA); assay: DNA gyrase inhibition (supercoiling) assay; parameters: DNA gyrase; with GyrB
Target sequence in this assay (P0AES4 2-875): as above

SimC7 [3] = target: T2, SimC7 (Streptomyces antibioticus, UniProt G9VYV4); assay: HPLC-UV ketoreductase assay ([…] NAD(P)H)
T2 construct: N-terminally His-tagged SimC7
T2 sequence (G9VYV4 1-284): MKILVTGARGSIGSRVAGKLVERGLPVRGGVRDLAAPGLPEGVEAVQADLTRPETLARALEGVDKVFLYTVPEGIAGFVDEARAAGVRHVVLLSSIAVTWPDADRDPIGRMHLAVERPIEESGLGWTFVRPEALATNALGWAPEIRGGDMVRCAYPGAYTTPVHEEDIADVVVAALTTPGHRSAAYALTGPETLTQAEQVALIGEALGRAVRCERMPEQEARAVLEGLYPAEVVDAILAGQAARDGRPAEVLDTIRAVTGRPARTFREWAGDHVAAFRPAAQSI

[4] = target: T1, DNA gyrase subunit A (GyrA); assay: SPR to GyrA N-terminal domain (data not shown); DNA gyrase supercoiling inhibition; parameters: GyrA N-terminal domain (SPR); DNA gyrase (supercoiling); with GyrB (supercoiling assay)
Text: SPR to GyrA N-terminal domain (data not shown); DNA gyrase supercoiling inhibition on DNA gyrase subunit A (GyrA) | SD8 bound to the GyrA N-terminal domain with a similar affinity to that reported previously
Target sequence in this assay (P0AES4 2-523): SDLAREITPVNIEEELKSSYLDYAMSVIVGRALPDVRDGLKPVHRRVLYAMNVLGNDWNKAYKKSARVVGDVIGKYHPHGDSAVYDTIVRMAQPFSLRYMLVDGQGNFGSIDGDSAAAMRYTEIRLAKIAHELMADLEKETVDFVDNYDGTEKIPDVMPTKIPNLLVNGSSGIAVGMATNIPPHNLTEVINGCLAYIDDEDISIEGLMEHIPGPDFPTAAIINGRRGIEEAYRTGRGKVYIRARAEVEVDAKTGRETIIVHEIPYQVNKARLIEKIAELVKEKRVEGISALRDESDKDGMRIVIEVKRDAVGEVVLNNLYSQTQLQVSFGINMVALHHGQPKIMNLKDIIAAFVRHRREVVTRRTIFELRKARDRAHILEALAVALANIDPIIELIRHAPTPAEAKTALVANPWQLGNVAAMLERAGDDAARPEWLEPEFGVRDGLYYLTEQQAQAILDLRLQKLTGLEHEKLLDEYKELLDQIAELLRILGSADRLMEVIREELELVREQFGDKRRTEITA

SimC7 [5] = target: T2, SimC7; assay: HPLC-UV ketoreductase assay; also oxidised as substrate in the reverse reaction

For `CC(=O)O[C@@H]1[C@@H](C)O[C@@H](c2ccc3c(c2O)C(=O)[C@]24O[C@@]2(C3=O)[C@@]2(O)C(=O)C=C(C)C[C@@]2(O)C[C@@H]4O)C[C@H]1OC(=O)/C=C/C=C/C=C/C=C/C(=O)Nc1c(O)c2ccc(O)c(Cl)c2oc1=O` [7-oxo-SD8], the IC50 [1] was 50 to 100 µM.

With `COC(=O)/C=C/C=C/C=C/C=C/C(=O)Nc1c(O)c2ccc(O)c(Cl)c2oc1=O` [MGD8N2A] the IC50 [2] was 25 µM.

With `NC(=O)C1=CN([C@@H]2O[C@H](COP(=O)(O)OP(=O)(O)OC[C@H]3O[C@@H](n4cnc5c(N)ncnc54)[C@H](O)[C@@H]3O)[C@@H](O)[C@H]2O)C=CC1` [NADH] the “HPLC-UV ketoreductase assay (0.3 mM NAD(P)H)” value (SimC7 [3]) was “SimC7 was able to use NADH or NADPH for the reduction (Fig. 6b)”.

With `NC(=O)C1=CN([C@@H]2O[C@H](COP(=O)(O)OP(=O)(O)OC[C@H]3O[C@@H](n4cnc5c(N)ncnc54)[C@H](OP(=O)(O)O)[C@@H]3O)[C@@H](O)[C@H]2O)C=CC1` [NADPH] the “HPLC-UV ketoreductase assay (0.3 mM NAD(P)H)” value (SimC7 [3]) was “SimC7 was able to use NADH or NADPH for the reduction (Fig. 6b) but showed a preference for NADPH”.

With `CC(=O)O[C@@H]1[C@@H](C)O[C@@H](c2ccc3c(c2O)[C@H](O)[C@]24O[C@@]2(C3=O)[C@@]2(O)C(=O)C=C(C)C[C@@]2(O)C[C@@H]4O)C[C@H]1OC(=O)/C=C/C=C/C=C/C=C/C(=O)Nc1c(O)c2ccc(O)c(Cl)c2oc1=O` [SD8, simocyclinone D8] the IC50 [4] was 0.1 to 0.5 µM.

In the case of `CC(=O)O[C@@H]1[C@@H](C)O[C@@H](c2ccc3c(c2O)[C@H](O)[C@]24O[C@@]2(C3=O)[C@@]2(O)C(=O)C=C(C)C[C@@]2(O)C[C@@H]4O)C[C@H]1OC(=O)/C=C/C=C/C=C/C=C/C(=O)Nc1c(O)c2ccc(O)c(Cl)c2oc1=O` [compound 2, simocyclinone D8], the “HPLC-UV ketoreductase assay; also oxidised as substrate in the reverse reaction” value (SimC7 [5]) is reported as “It was also possible to assay the reaction in the reverse direction, following the oxidation of SD8 to 7-oxo-SD8 by SimC7”.
